Measurements as given in PubChem BioAssay (NCI).
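In this assay, cells in 96-well plates receive the compound at five concentrations for 48 hours. Endpoints are linearly interpolated between the surrounding concentrations. TGI: total growth inhibition.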

How the values were obtained:
Assay in all cases: growth of human tumour cells (NCI), 48 h
[1] = tested on: CCRF-CEM leukemia
[2] = tested on: PC-3 prostate
[3] = tested on: TK-10 renal
[4] = tested on: SK-MEL-2 melanoma
[5] = tested on: EKVX NSCLC
[6] = tested on: RXF 393 renal
[7] = tested on: HL-60(TB) leukemia
[8] = tested on: NCI-H522 lung
[9] = tested on: SK-OV-3 ovarian
[10] = tested on: HOP-62 NSCLC
[11] = tested on: NCI-H23 lung
[12] = tested on: NCI/ADR-RES ovarian
[13] = tested on: HT29 colon
[14] = tested on: RPMI-8226 leukemia
[15] = tested on: SF-539 CNS
[16] = tested on: HCT-116 colon
[17] = tested on: MDA-N
[18] = tested on: BT-549 breast
[19] = tested on: MDA-MB-231 breast
[20] = tested on: ACHN renal
[21] = tested on: SK-MEL-28 melanoma
[22] = tested on: A549 NSCLC
[23] = tested on: OVCAR-3 ovarian
[24] = tested on: UACC-257 melanoma
[25] = tested on: MDA-MB-435
[26] = tested on: SW-620 colon
[27] = tested on: UO-31 renal
[28] = tested on: K-562 leukemia
[29] = tested on: HCT-15 colon
[30] = tested on: SNB-19 CNS
[31] = tested on: SNB-75 CNS
[32] = tested on: SR leukemia
[33] = tested on: 786-0 renal
[34] = tested on: OVCAR-8 ovarian
[35] = tested on: CAKI-1 renal
[36] = tested on: SF-268 CNS
[37] = tested on: SF-295 CNS
[38] = tested on: IGROV1 ovarian
[39] = tested on: DU-145 prostate
[40] = tested on: UACC-62 melanoma
[41] = tested on: KM12 colon
[42] = tested on: SK-MEL-5 melanoma
[43] = tested on: HOP-92 NSCLC
[44] = tested on: MALME-3M melanoma
[45] = tested on: A498 renal
[46] = tested on: OVCAR-5 ovarian
[47] = tested on: OVCAR-4 ovarian
[48] = tested on: HS 578T breast
[49] = tested on: SN12C renal
[50] = tested on: U251 CNS
[51] = tested on: COLO 205 colon
[52] = tested on: NCI-H226 lung
[53] = tested on: NCI-H460 lung
[54] = tested on: M14 melanoma
[55] = tested on: LOX IMVI melanoma
[56] = tested on: MCF7 breast
[57] = tested on: MOLT-4 leukemia
[58] = tested on: T-47D breast

Measured: TGI

CC1=NN(c2ccccc2)C(=O)C1N=Nc1ccc(S(N)(=O)=O)cc1 (stereo not drawn)
> 100 µM: all assays above
